Like-named read-outs stand apart in the source and are kept apart here.
Key:
OSBP = target: T1, OSBP (Homo sapiens, UniProt P22059); test: SPR (Biacore 8K, protein immobilised on CM5 by amine coupling, kon/koff); assay type: binding
T1 construct: full-length cDNA in pGEX-4T-1, E. coli Rosetta(DE3), GST fusion, GST tag removed by thrombin
T1 sequence (P22059 1-807): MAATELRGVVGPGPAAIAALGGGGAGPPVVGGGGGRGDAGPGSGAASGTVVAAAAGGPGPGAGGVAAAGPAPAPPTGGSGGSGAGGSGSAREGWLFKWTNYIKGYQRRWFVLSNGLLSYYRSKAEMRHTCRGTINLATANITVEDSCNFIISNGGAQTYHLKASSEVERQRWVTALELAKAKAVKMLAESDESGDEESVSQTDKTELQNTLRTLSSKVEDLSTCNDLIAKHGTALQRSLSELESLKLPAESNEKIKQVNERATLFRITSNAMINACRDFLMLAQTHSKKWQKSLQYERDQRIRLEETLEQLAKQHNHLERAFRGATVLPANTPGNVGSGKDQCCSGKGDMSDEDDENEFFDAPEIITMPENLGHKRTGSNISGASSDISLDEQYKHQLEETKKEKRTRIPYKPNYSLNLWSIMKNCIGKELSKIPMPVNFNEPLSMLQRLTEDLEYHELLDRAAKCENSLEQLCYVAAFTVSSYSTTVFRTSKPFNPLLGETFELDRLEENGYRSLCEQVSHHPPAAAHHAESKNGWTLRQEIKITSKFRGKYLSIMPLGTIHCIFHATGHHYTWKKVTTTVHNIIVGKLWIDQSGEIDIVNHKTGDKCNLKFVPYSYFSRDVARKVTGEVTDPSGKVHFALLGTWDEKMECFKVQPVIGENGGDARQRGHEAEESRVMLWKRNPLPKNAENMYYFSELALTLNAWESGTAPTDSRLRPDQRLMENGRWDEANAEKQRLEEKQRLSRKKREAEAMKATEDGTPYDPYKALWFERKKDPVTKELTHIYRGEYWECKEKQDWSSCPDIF

ORP4L = target: T2, ORP4L (Homo sapiens, UniProt Q969R2); test: as above; assay type: binding; conditions: PBST pH 7.4, 25 °C; acyl chains of PI(4)P not told for this test (diC8 named only for the competition test)
T2 construct: gene OSBP2; full-length cDNA in pGEX-4T-1, E. coli Rosetta(DE3), GST fusion, GST tag removed by thrombin
T2 sequence (Q969R2 1-916): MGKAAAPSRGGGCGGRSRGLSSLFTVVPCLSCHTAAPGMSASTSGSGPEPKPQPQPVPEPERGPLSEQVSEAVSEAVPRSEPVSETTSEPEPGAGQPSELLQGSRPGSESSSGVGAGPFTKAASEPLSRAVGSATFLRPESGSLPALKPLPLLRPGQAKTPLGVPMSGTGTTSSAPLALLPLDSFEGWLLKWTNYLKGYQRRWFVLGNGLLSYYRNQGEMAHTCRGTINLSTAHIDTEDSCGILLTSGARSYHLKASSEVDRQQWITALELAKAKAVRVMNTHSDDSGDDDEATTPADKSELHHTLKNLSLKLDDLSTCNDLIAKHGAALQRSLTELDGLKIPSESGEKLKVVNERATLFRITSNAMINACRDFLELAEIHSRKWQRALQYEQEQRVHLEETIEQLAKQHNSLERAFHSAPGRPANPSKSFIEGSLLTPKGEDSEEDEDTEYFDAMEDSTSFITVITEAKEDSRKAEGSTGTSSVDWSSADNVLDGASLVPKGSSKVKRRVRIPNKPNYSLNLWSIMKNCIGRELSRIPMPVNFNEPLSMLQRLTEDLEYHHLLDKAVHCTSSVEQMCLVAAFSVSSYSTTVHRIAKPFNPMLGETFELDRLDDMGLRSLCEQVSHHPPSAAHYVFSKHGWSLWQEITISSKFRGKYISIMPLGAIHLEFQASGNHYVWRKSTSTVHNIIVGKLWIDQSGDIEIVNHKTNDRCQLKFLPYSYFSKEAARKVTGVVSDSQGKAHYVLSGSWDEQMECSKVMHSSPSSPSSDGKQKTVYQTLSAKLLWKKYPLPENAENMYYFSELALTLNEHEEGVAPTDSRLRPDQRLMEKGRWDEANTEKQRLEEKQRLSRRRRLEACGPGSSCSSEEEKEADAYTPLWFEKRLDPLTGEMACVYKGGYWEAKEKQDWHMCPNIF

Kd (ORP4L) [µM]	Kd (OSBP; PBST pH 7.4, 25 °C, acyl chains of PI(4)P not told for this test (diC8 named only for the competition test)) [µM]	Compound	Kd (OSBP) [µM]
–	–	COc1ccc(C(=O)O[C@H]2[C@H](O[C@@H]3[C@@H](OC(C)=O)[C@H](O[C@H]4C[C@H]5[C@@H]6CC=C7C[C@@H](O)CC[C@]7(C)[C@H]6CC[C@]5(C)[C@@]4(O)[C@H](C)C(=O)CCC(C)C)OC[C@@H]3O)OC[C@@H](O)[C@@H]2O)cc1 [OSW-1]	1.8 ± 0.37
12.7 ± 2.1	4.3 ± 1.2	PI(4)P	–

Reference: publication PMC9338045, “An acquired phosphatidylinositol 4-phosphate transport initiates T-cell deterioration and leukemogenesis” (Nature Communications, 2022)
